Results published in the supplement of paper PMC10307832.

Legend:
Test in all cases: relative viability (nuclei count vs DMSO), 5 days (fraction); higher = more cells survive
Doramapimod + Foretinib = compound: Cc1ccc(-n2nc(C(C)(C)C)cc2NC(=O)Nc2ccc(OCCN3CCOCC3)c3ccccc23)cc1 [Doramapimod] + COc1cc2c(Oc3ccc(NC(=O)C4(C(=O)Nc5ccc(F)cc5)CC4)cc3F)ccnc2cc1OCCCN1CCOCC1 [Foretinib] (partner 0.25 µM)
In short: (§1)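 Nuclei were stained with Hoechst during a one-step fixation (final 0.05% Triton X-100, 1% formaldehyde, 1 ug/ml Hoechst) carried out 5 days after dosing, then counted on 4× images. The cells, lung cancer lines in 1536-well plates, had been dosed by pin tool the day after seeding with one drug alone or a fixed anchor-drug dose plus five library-drug doses (not always all listed) in √10 steps. Relative viability is the nuclei count in treated wells divided by that in vehicle wells, and each value is the median of duplicate plates.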

RAF265 + Alpelisib = compound: Cn1c(Nc2ccc(C(F)(F)F)cc2)nc2cc(Oc3ccnc(-c4ncc(C(F)(F)F)[nH]4)c3)ccc21 [RAF265] + Cc1nc(NC(=O)N2CCC[C@H]2C(N)=O)sc1-c1ccnc(C(C)(C)C(F)(F)F)c1 [Alpelisib] (partner 2 µM)
In short: as §1

IPA-3 + Pemetrexed = compound: C1=CC=C2C(=C1)C=CC(=C2SSC3=C(C=CC4=CC=CC=C43)O)O [IPA-3] + Nc1nc2[nH]cc(CCc3ccc(C(=O)N[C@@H](CCC(=O)O)C(=O)O)cc3)c2c(=O)[nH]1 [Pemetrexed] (partner 0.2 µM)
In short: as §1

Doramapimod + Pictilisib = compound: Cc1ccc(-n2nc(C(C)(C)C)cc2NC(=O)Nc2ccc(OCCN3CCOCC3)c3ccccc23)cc1 [Doramapimod] + CS(=O)(=O)N1CCN(Cc2cc3nc(-c4cccc5[nH]ncc45)nc(N4CCOCC4)c3s2)CC1 [Pictilisib] (partner 1 µM)
In short: as §1

Row | Cell Line | relative viability (Doramapimod + Foretinib; first compound 0.02 µM) | relative viability (Doramapimod + Foretinib; first compound 0.06325 µM) | relative viability (Doramapimod + Foretinib; first compound 0.2 µM) | relative viability (Doramapimod + Foretinib; first compound 0.6325 µM) | relative viability (Doramapimod + Foretinib; first compound 2 µM) | relative viability (RAF265 + Alpelisib; first compound 0.01 µM) | relative viability (RAF265 + Alpelisib; first compound 0.03162 µM) | relative viability (RAF265 + Alpelisib; first compound 0.1 µM) | relative viability (RAF265 + Alpelisib; first compound 0.3162 µM) | relative viability (RAF265 + Alpelisib; first compound 1 µM) | relative viability (IPA-3 + Pemetrexed; first compound 0.2 µM) | relative viability (IPA-3 + Pemetrexed; first compound 0.6325 µM) | relative viability (IPA-3 + Pemetrexed; first compound 2 µM) | relative viability (IPA-3 + Pemetrexed; first compound 6.325 µM) | relative viability (IPA-3 + Pemetrexed; first compound 20 µM) | relative viability (Doramapimod + Pictilisib; first compound 0.02 µM) | relative viability (Doramapimod + Pictilisib; first compound 0.06325 µM) | relative viability (Doramapimod + Pictilisib; first compound 0.2 µM) | relative viability (Doramapimod + Pictilisib; first compound 0.6325 µM) | relative viability (Doramapimod + Pictilisib; first compound 2 µM)
1 | NCI-H2023 | 0.833 | 0.732 | 0.691 | 0.823 | 0.605 | 0.554 | 0.625 | 0.721 | 0.639 | 0.508 | 0.249 | 0.207 | 0.266 | 0.227 | 0.243 | 0.25 | 0.195 | 0.195 | 0.152 | 0.213
2 | NCI-H2085 | 1.03 | 0.85 | 0.707 | 1.21 | 1.03 | 1 | 0.961 | 0.85 | 1.03 | 0.891 | 0.89 | 0.828 | 0.864 | 0.821 | 0.993 | 0.438 | 0.424 | 0.431 | 0.45 | 0.381
3 | NCI-H2087 | 0.996 | 1.14 | 0.993 | 1.18 | 1.24 | 0.861 | 0.89 | 0.909 | 0.709 | 0.677 | 0.698 | 0.642 | 0.645 | 0.678 | 0.608 | 0.754 | 0.795 | 0.83 | 0.764 | 0.847
4 | NCI-H2126 | 1.21 | 0.988 | 1.14 | 1.34 | 1.2 | 0.75 | 0.751 | 0.731 | 0.663 | 0.519 | 0.726 | 0.706 | 0.721 | 0.678 | 0.712 | 0.487 | 0.542 | 0.488 | 0.438 | 0.401
5 | NCI-H2170 | 0.996 | 0.985 | 1 | 1.05 | 1.01 | 0.773 | 0.643 | 0.671 | 0.524 | 0.641 | 0.254 | 0.28 | 0.243 | 0.28 | 0.273 | 0.332 | 0.325 | 0.295 | 0.438 | 0.269
6 | NCI-H2228 | 0.723 | 0.87 | 0.825 | 0.764 | 0.723 | 0.791 | 0.718 | 0.436 | 0.299 | 0.29 | 0.369 | 0.334 | 0.336 | 0.354 | 0.341 | 0.374 | 0.563 | 0.417 | 0.366 | 0.337
7 | NCI-H2347 | – | 1.03 | 1.1 | 0.861 | 1.11 | 1.18 | 0.97 | 0.933 | 0.612 | 0.488 | 0.418 | 0.416 | 0.76 | 0.452 | 0.433 | 0.637 | 0.547 | 0.497 | 0.829 | 0.347
8 | NCI-H2405 | 1.11 | 1.01 | 1.04 | 1.14 | 0.998 | 0.808 | 0.858 | 0.863 | 0.712 | 0.297 | 1.19 | 1.07 | 1.11 | 0.998 | 0.962 | 0.435 | 0.424 | 0.401 | 0.68 | 0.356
